Test results: EP2276347B1, “TOLTRAZURIL WITH IMPROVED DISSOLUTION PROPERTIES” (KRKA, tovarna zdravil, d.d., Novo mesto, priority 2008, dated 2009)

assay: Specific surface area by nitrogen adsorption gas sorption (BET method); assay type: physicochemical; conditions: toltrazuril particles, outgased in vacuum at room temperature
Description: Specific surface area was measured by gas sorption system based on nitrogen adsorption, using Brunauer, Emmett and Teller (BET) method. Corresponding amount of sample was outgased in a vacuum at room temperature. After degasification the tube was weighed with sample and the analysis was proceeded.

| SMILES | Specific surface area [m^2/g] |
| --- | --- |
| Cc1cc(-n2c(=O)[nH]c(=O)n(C)c2=O)ccc1Oc1ccc(SC(F)(F)F)cc1 [micronized toltrazuril, toltrazuril] | 14.1 |
| Cc1cc(-n2c(=O)[nH]c(=O)n(C)c2=O)ccc1Oc1ccc(SC(F)(F)F)cc1 [Example 3, toltrazuril] | 13.8 |
| Cc1cc(-n2c(=O)[nH]c(=O)n(C)c2=O)ccc1Oc1ccc(SC(F)(F)F)cc1 [Example 1, toltrazuril] | 13.8 |
| Cc1cc(-n2c(=O)[nH]c(=O)n(C)c2=O)ccc1Oc1ccc(SC(F)(F)F)cc1 [Example 4, toltrazuril] | 15.2 |
| Cc1cc(-n2c(=O)[nH]c(=O)n(C)c2=O)ccc1Oc1ccc(SC(F)(F)F)cc1 [Example 2, toltrazuril] | 15 |
| Cc1cc(-n2c(=O)[nH]c(=O)n(C)c2=O)ccc1Oc1ccc(SC(F)(F)F)cc1 [Example 5, toltrazuril] | 19.5 |
| Cc1cc(-n2c(=O)[nH]c(=O)n(C)c2=O)ccc1Oc1ccc(SC(F)(F)F)cc1 [Example 6, toltrazuril] | 18.8 |
